Entries after “also recorded” stand apart in the source; their conditions may differ.
Assays:
HEK293 cells = assay: Luminescent cytotoxicity assay, HEK293 cells transfected with GRIN1 and GRIN2A or GRIN2B; type: cell-based, human; settings: compound added 6 h after transfection; cell death 48 h after transfection
Method: HEK293 cells were cultured in Dulbecco's Modified Eagle Medium (DMEM, Gibco™ 41965-039) supplement with 10% Fetal Bovine Serum (FBS, Gibco™, 10270), 1% Sodium Pyruvate (Gibco™, 11360070), 1% MEM NEAA (GibcoT^M, 11140035) and 0.5% Penicillin-Streptomycin (P-S; Sigma, P0781) and Passagel5-25 were used for experiments.
To test the cytotoxicity of compounds according to the present invention, HEK293 cells (70-80% confluent) were transfected 24 hours after plating with both GRIN1 and GRIN2 Å or GRIN2B, respectively (1:[…]) with Lipofectamine 2000 according to manufacturer's instructions. The relative number of dead cells in the population at the indicated time points after transfection was measured with the CytoTox-Glo™ Cytotoxicity assay (Promega, G9290) according to manufacturer's instruction with minor modification. Briefly, 10% of total medium were mixed with 10 μL AAF-amino luciferin to reach a final volume at 200 μL with water, the dead cell relative luminescence units (DRLU) was measured by GloMax (Promega) in a 96 well white bottom polystyrene microplate (Corning Costar®, 3912). After all the measurements, lysis reagents have been added to the cells and 10% of lysate was used for the total cell relative luminescence units (TRLU) measurement. Cell death was calculated by the following equations: […]
For drug testing, P4, P8, P9, P13 and P15 were added to the medium at indicated concentration 6 h after transfection. DRLU, TRLU and cell death were measured and calculated 48 h after transfection.

[1] = test system: primary mouse hippocampal neurons; assay: NMDA induced cell death (excitotoxicity) in cultured primary neurons; type: cell-based; settings: 30 min pre-treatment with 10 μM compound; NMDA 20 μM for 10 min or 24 hours; cell death 24 hours after challenge
[2] = test system: middle cerebral artery occlusion (MCAO) mouse stroke model; assay: middle cerebral artery occlusion (MCAO) mouse stroke model, infarct volume; type: in vivo; settings: rAAV delivered stereotactically to mouse cortex 3 weeks before MCAO; quantified 7 days post-injury; vs PBS control
From the text: Given the robust protective effect of SEQ ID NO:5 in cultured neurons, the inventors next analysed its neuroprotective potential in vivo using the middle cerebral artery occlusion (MCAO) mouse stroke model.
Stereotactic intracerebral injection to the cortex of mice: C57BL/6N male mice (8 weeks±5 days old) weighing 25±1 g were randomly grouped and anaesthetized with a mixture of Sedin©, Midazolam and Fentanyl®-Janssen and placed on a rodent stereotactic frame on a heat pad temperature controlled by a ATC1000 DC rectal thermometer (World Precision Instruments, Berlin). rAAV-SEQ ID NO:5) was infused into the left cortex (coordinates relative to Bregma: first site: AP 0.2 mm; ML 2.0; DV −2.0; second site: AP 0.2; ML 2.0; DV −1.8; third site: AP 0.2; ML 3.0; DV −4.0; forth site: AP 0.2; ML 3.0; DV −3.5.) using a Ultra Micro Pump III (World Precision Instruments, Berlin) to drive a 10 μl Nanofil syringe (World Precision Instruments, Berlin). […]
MCAO: Middle cerebral artery occlusion (MCAO) induced a permanent distal occlusion of the middle cerebral artery (MCA). […] The silver stained sections were scanned at 1200 dpi and infarct area was measured by using ImageJ software (NIH Image). Surgery was performed and ischemic damage was measured by an investigator who had no knowledge of the treatment group, rAAV or recombinant protein was applied by stereotactic injection or intranasal delivery.

synaptic NMDA receptor = assay: Gabazine induced calcium influx into mitochondria (synaptic NMDA receptor signalling); type: cell-based, mouse; settings: primary cultured neurons, polypeptides expressed via rAAV
Method: Gabazine induced mitochondrial Ca^2+ response in primary cultured neurons is recorded and analysed as described in a previous study (Qiu et al, Nat Commun. 2013; 4:2034, incorporated herewith by reference) using a FRET calcium indicator 4mtD3cpv that specifically located to mitochondria. Briefly, mitochondrial Ca^2+ levels were detected with FRET-based and mitochondrial targeted Ca^2+ indicator 4mtD3cpv. 4mtD3cpv were excited at 430±12 nm (CFP) and 500±10 nm (YFP), and emission of CFP (470±12 nm) and YFP (535±15 nm) were separated and filtered using a DualView beam splitter (AHF Analysentechnik and MAG Biosystems), and all fluorescence images were recorded through a 20× water-immersion objective at 1 Hz.
In a further experiment the inventors assessed the impact of the polypeptide comprising the sequence of SEQ ID NO:5 and SEQ ID NO: 54, respectively, on Gabazine induced calcium influx (mitochondria), a measure of synaptic NMDA receptor signalling. The experiment was carried out in primary cultured neurons as described above.

Row | Compound | NMDA receptor induced cell death (HEK293 cells) | NMDA receptor induced cell death (transient and chronic NMDA toxicity) [1] | infarct volume [2] | Gabazine induced calcium influx into mitochondria (synaptic NMDA receptor)
1 | CCN(CCN)Cc1cccc(Br)c1 [P4] | reduced the level of NMDA receptor induced cell death | neuroprotective effect |  | 
2 | SEQ ID NO:5: polypeptide, amino acid residues 633-689 of mouse TRPM4 (NSEERAARLLLRRCPLWGEATCLQLAMQADARAFFAQDGVQSLLTQKWWGEMDSTTP; listed as Mus musculus) |  |  | significantly smaller; also recorded: effectively reduced the infarct volumes | neither of these polypeptides affects synaptic NMDA receptor signalling; also recorded: not affected

From patent US20260242440A1, “NOVEL MEANS TO MODULATE NMDA RECEPTOR-MEDIATED TOXICITY” (FUNDAMENTAL PHARMA GMBH, priority 2018, published 2026)
